Laboratory results: ChEMBL document CHEMBL2074431, “The novel anticancer drug KRN5500 interacts with, but is hardly transported by, human P-glycoprotein” (Jpn J Cancer Res, 2000)

Molecular target: ATP-dependent translocase ABCB1 (Homo sapiens, UniProt P08183)
Test: TP_TRANSPORTER: inhibition of Azidopine photoaffinity labelling (Azidopine: 0.4 uM, KRN5500: 400 uM) in membrane fraction from MDR1-expressing LLC-PK1 cell
Assay type: functional, cell membranes
Conditions: pig, llc-pk1, 400 µM

Chain of ATP-dependent translocase ABCB1 (P08183 whole entry): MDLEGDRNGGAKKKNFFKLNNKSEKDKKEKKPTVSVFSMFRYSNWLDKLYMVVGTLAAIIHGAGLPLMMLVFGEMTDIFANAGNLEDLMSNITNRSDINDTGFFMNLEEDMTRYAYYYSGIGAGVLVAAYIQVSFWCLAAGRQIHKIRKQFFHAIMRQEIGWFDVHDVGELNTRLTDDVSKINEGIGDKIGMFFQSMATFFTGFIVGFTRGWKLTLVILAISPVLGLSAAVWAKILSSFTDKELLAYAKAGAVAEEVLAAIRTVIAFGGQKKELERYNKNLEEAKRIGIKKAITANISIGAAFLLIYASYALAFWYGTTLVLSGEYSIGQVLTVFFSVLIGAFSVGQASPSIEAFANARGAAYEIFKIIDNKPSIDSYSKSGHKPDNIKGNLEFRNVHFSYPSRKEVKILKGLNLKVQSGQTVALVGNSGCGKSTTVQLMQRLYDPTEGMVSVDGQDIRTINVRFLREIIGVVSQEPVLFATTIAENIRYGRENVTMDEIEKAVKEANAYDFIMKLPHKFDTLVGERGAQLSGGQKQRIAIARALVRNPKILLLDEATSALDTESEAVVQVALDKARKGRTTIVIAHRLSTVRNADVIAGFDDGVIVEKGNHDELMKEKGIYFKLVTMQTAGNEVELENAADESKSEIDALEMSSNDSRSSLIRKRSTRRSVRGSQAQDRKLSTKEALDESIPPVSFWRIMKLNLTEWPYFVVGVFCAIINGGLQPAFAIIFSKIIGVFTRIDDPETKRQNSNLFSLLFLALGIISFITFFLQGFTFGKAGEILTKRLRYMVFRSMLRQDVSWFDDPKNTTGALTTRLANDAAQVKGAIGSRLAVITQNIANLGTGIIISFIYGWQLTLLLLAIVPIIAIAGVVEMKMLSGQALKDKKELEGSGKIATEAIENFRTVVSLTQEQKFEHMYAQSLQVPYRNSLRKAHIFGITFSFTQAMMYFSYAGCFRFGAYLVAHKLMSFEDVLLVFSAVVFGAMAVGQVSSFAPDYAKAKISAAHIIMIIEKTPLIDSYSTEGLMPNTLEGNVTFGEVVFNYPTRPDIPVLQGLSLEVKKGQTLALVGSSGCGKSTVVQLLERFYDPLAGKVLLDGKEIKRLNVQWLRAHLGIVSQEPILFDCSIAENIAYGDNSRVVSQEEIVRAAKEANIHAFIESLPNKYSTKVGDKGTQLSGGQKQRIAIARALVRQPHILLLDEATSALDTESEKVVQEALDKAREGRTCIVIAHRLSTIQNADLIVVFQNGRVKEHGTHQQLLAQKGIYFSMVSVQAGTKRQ

Activity: inhibitor [+]
Structure (SMILES): CCCCCCCCC/C=C/C=C/C(=O)NCC(=O)N[C@@H]1[C@@H](O)[C@@H](O)[C@@H](Nc2ncnc3[nH]cnc23)O[C@H]1[C@@H](O)CO
